{
  "source": "paper PMC9558617",
  "about": "(ACS infectious diseases, 2022)",
  "data": [
    {"system": "CC(C)(CO)C(=O)C(=O)O", "assay": "purified protein, by the assay type", "conditions": "not given", "units": {"Km": "µM"}, "values": [
      {"molecule": "MtbPanG (Rv3603c) (Mycobacterium tuberculosis H37Rv)", "Km": "24 ± 2"}
    ]},
    {"system": "Mtb WT", "assay": "microbe, parasite or virus in culture", "type": "cell-based, Mycobacterium tuberculosis", "conditions": "not given", "units": {"MIC WT": "µM"}, "values": [
      {"molecule": "CC1(C)S[C@@H]2[C@H](NC(=O)[C@H](N)c3ccccc3)C(=O)N2[C@H]1C(=O)O", "note": "[Ampicillin]", "MIC WT": ">50"},
      {"molecule": "Capreomycin", "MIC WT": 0.78}
    ]},
    {"system": "Mtb WT", "assay": "microbe, parasite or virus in culture", "type": "cell-based, Mycobacterium tuberculosis", "conditions": "Mycobacterium tuberculosis", "units": {"MIC": "µM"}, "values": [
      {"molecule": "CC1(C)S[C@@H]2[C@H](NC(=O)[C@H](N)c3ccccc3)C(=O)N2[C@H]1C(=O)O", "note": "[Ampicillin]", "MIC": 2.3}
    ]},
    {"system": "Mtb WT", "assay": "microbe, parasite or virus in culture", "type": "cell-based, Mycobacterium tuberculosis", "conditions": "Mycobacterium tuberculosis, read-out: MIC WT", "units": {"MIC": "µM"}, "values": [
      {"molecule": "CC(C)/N=c1\\cc2n(-c3ccc(Cl)cc3)c3ccccc3nc-2cc1Nc1ccc(Cl)cc1", "note": "[Clofazimine]", "MIC": 0.16},
      {"molecule": "C[C@@H](O)[C@H]1C(=O)N2C(C(=O)O)=C(S[C@@H]3CN[C@H](C(=O)N(C)C)C3)[C@H](C)[C@H]12", "note": "[Meropenem]", "MIC": 1.2},
      {"molecule": "CC1(C)S[C@@H]2[C@H](NC(=O)[C@H](N)c3ccccc3)C(=O)N2[C@H]1C(=O)O", "note": "[Ampicillin]", "MIC": "> 50"},
      {"molecule": "Nc1ccc(C(=O)O)c(O)c1", "note": "[p-Aminosalicylic acid]", "MIC": 0.3},
      {"molecule": "CO[C@H]1/C=C/O[C@@]2(C)Oc3c(C)c(O)c4c(O)c(c(/C=N/N5CCN(C)CC5)c(O)c4c3C2=O)NC(=O)/C(C)=C\\C=C\\[C@H](C)[C@H](O)[C@@H](C)[C@@H](O)[C@@H](C)[C@H](OC(C)=O)[C@@H]1C", "note": "[Rifampicin]", "MIC": 0.012},
      {"molecule": "N[C@@H]1CON=C1O", "note": "[D-Cycloserine]", "MIC": 4.7},
      {"molecule": "[H]/N=C(/N)N[C@H]1[C@H](O)[C@@H](O)[C@H](O[C@@H]2O[C@@H](C)[C@](O)(C=O)[C@H]2O[C@@H]2O[C@@H](CO)[C@H](O)[C@@H](O)[C@@H]2NC)[C@@H](N/C(N)=N\\[H])[C@@H]1O", "note": "[Streptomycin]", "MIC": 0.46},
      {"molecule": "C[C@@H](O)[C@H]1C(=O)N2C(C(=O)O)=C(SCCN=CN)C[C@H]12", "note": "[Imipenem]", "MIC": 0.39},
      {"molecule": "COc1nc2ccc(Br)cc2cc1[C@@H](c1ccccc1)[C@@](O)(CCN(C)C)c1cccc2ccccc12", "note": "[Bedaquiline]", "MIC": 0.31},
      {"molecule": "COc1c(N2C[C@@H]3CCCN[C@@H]3C2)c(F)cc2c(=O)c(C(=O)O)cn(C3CC3)c12", "note": "[Moxifloxacin]", "MIC": 0.12},
      {"molecule": "CC(=O)NC[C@H]1CN(c2ccc(N3CCOCC3)c(F)c2)C(=O)O1", "note": "[Linezolid]", "MIC": 0.78},
      {"molecule": "C[C@]1(COc2ccc(N3CCC(Oc4ccc(OC(F)(F)F)cc4)CC3)cc2)Cn2cc([N+](=O)[O-])nc2O1", "note": "[Delamanid]", "MIC": 0.0031},
      {"molecule": "NNC(=O)c1ccncc1", "note": "[Isoniazid]", "MIC": 0.31},
      {"molecule": "CC[C@@H](CO)NCCN[C@@H](CC)CO", "note": "[Ethambutol]", "MIC": 1.6},
      {"molecule": "CCc1cc(C(N)=S)ccn1", "note": "[Ethionamide]", "MIC": 0.3},
      {"molecule": "CN[C@H](CC(C)C)C(=O)N[C@H]1C(=O)N[C@@H](CC(N)=O)C(=O)N[C@H]2C(=O)N[C@H]3C(=O)N[C@H](C(=O)N[C@H](C(=O)O)c4cc(O)cc(O)c4-c4cc3ccc4O)[C@H](O)c3ccc(c(Cl)c3)Oc3cc2cc(c3O[C@@H]2O[C@H](CO)[C@@H](O)[C@H](O)[C@H]2O[C@H]2C[C@](C)(N)[C@H](O)[C@H](C)O2)Oc2ccc(cc2Cl)[C@H]1O", "note": "[Vancomycin]", "MIC": 5}
    ]},
    {"system": "Mtb H37Rv", "assay": "microbe, parasite or virus in culture", "type": "cell-based", "conditions": "Mycobacterium tuberculosis, 168 h, read-out: MIC 7H9/ADC/Tw", "units": {"MIC": "µM"}, "values": [
      {"molecule": "N[C@H](Cc1ccccc1)C(=O)O", "note": "[D-Phe, D-phenylalanine]", "MIC": "> 310"}
    ]},
    {"system": "PanE KPR from E. coli", "assay": "not given", "conditions": "literature values; cited from earlier work", "units": {"Km": "µM"}, "values": [
      {"molecule": "NADPH", "Km": "4 to 7"},
      {"molecule": "CC(C)(CO)C(=O)C(=O)O", "note": "[ketopantoate]", "Km": "30 to 120"}
    ]}
  ]
}
